{
  "source": "patent US6660255B1",
  "about": "“Inhibition of gene transcription by polyamide DNA-binding ligands” (California Institute of Technology, priority 1997, dated 2003)",
  "tested_on": "CMV major immediate early promoter",
  "assay": "CMV MIEP transcription in vitro (control template)",
  "assay_type": "biochemical, human cytomegalovirus",
  "conditions": "H9/HeLa extract system",
  "description": "The effects of polyamides 1 and 2 on HIV-1 transcription were tested in an in vitro transcription assay with a HeLa cell nuclear extract (FIG. 21A). The effects of the polyamides on basal transcription by RNA polymerase II was monitored with a nuclear extract prepared from HeLa cells (J. D. Dignam, P. L. Martin, B. S. Shastry, R. G. Roeder, Describe eukaryotic gene transcription with purified components Meth. Enzymol. 101, 582 (1983)). The human lymphloid cell line H9 (ATCC HTB 176) was grown in suspension culture in RPMI medium (Bio Whittaker) supplemented with 10% fetal calf serum (Tissue Culture Biological). Whole cell extracts of H9 cells in log phase growth were prepared by hypotonic lysis and contained 20 mg/ml protein, as determined by the Bradford reaction. Run-off RNA transcripts of ˜300 bases (CMV MIEP linked to a guanine-less cassette, plasmid pEIB-GL and ˜500 bases (pHIV LTR-CAT) where obtained with EcoRI-digested plasmid DNA (100 ng per 25 μL reaction).\nPolyamide-DNA complexes were allowed to form at ambient temperature for 30 min prior to addition of the nuclear extract. […] RNA was purified by extraction with RNAzol (TelTest, Friendswood, Tex.) and analyzed by electrophoresis on a denaturing (8.3 M urea) 6% polyacrylamide gel. […]",
  "data": [
    {"smiles": "CN(C)CCCNC(=O)CCNC(=O)c1cc(NC(=O)c2nc(NC(=O)CCNC(=O)c3cc(NC(=O)c4nc(NC(=O)CCCNC(=O)c5cc(NC(=O)c6nc(NC(=O)CCNC(=O)c7cc(NC(=O)c8nccn8C)cn7C)cn6C)cn5C)cn4C)cn3C)cn2C)cn1C", "note": "[polyamide 4, ImPy-β-ImPy-γ-ImPy-β-ImPy-β-Dp]", "values": [
      {"measurement": "inhibition of CMV transcription", "result": "fails to inhibit"}
    ]}
  ]
}
